Here are results for twelve molecules from ChEMBL document CHEMBL1201862, “PubChem BioAssay data set” (2004).

Test systems include DLD-1; SK-MEL-5; KM12; CAKI-1; SR; HT-29; Malme-3M; MOLT-4; HOP-92; SF-268; LOX IMVI; ACHN; SNB-19; UO-31; A549; NCI-H226; HOP-62; MDA-MB-435; DU-145; BT-549.
Holding throughout (test): NCI anticancer screen, dose series, 48 h

SMILES strings stand for the structures.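 Following 48 hours of exposure in 96-well plates, responses at five concentrations were used to interpolate endpoints linearly. The concentration for 50% growth inhibition is given as GI50.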 Activity calls are given as the source filed them. Cut-off read from the data, not from the text of the source: active = GI50 up to about 1.1 µM and inactive = higher.

Consider `COc1ccc(CCc2ccccc2CC(=O)O)cc1`, for which the GI50 in the experiment with DLD-1, with SK-MEL-5, with KM12, with CAKI-1, in the experiment on SR and with HT-29 was > 100 µM (inactive) in each case. Also, the GI50 with Malme-3M, with MOLT-4, with HOP-92, with SF-268, in the experiment on LOX IMVI and with ACHN was > 100 µM (inactive) in each case. Besides, the GI50 in the experiment on SNB-19, with UO-31, with A549 and with NCI-H226 was > 100 µM (inactive) throughout.
As for `O=C(Cc1ccccc1)NS(=O)(=O)c1ccccc1`, the GI50 in the experiment on DLD-1, in the experiment on KM12, with CAKI-1, with SR, with HT-29 and in the experiment with Malme-3M was > 100 µM (inactive) in each case. Besides, the GI50 in the experiment on MOLT-4, in the experiment with HOP-92, in the experiment with SF-268, in the experiment with LOX IMVI, with ACHN and in the experiment with SNB-19 was > 100 µM (inactive) in each case. Besides, the GI50 in the experiment on UO-31, in the experiment on HOP-62, in the experiment on A549 and with NCI-H226 was > 100 µM (inactive) in each case.
For `CC[C@@H]1OC2(C)CC(S(=O)(=O)c3ccccc3)CC1O2` (some centres not stated), the GI50 was > 100 µM (inactive) in the experiment on DLD-1; > 100 µM (inactive) in the experiment with SK-MEL-5; > 100 µM (inactive) in the experiment with KM12; < 0.01 µM (active) in the experiment with CAKI-1; > 100 µM (inactive) in the experiment with SR; > 100 µM (inactive) in the experiment on HT-29. Further, the GI50 in the experiment with Malme-3M, in the experiment on MOLT-4, in the experiment on HOP-92, in the experiment with SF-268, in the experiment with ACHN and in the experiment with SNB-19 was > 100 µM (inactive) each time. Moreover, the GI50 in the experiment with UO-31, in the experiment with HOP-62, with A549 and in the experiment on NCI-H226 was > 100 µM (inactive) in each case.
With `CC(=O)C1CC2(c3ccccc3)C(=O)c3ccccc3N2O1` (configuration not stated), the GI50 in the experiment on DLD-1, in the experiment with SK-MEL-5, with SR, in the experiment with HT-29, in the experiment on Malme-3M and with MOLT-4 was > 100 µM (inactive) in each case. The GI50 with HOP-92, in the experiment with SF-268, with ACHN, with SNB-19, with UO-31 and in the experiment with HOP-62 was > 100 µM (inactive) each time. The GI50 in the experiment on A549 and in the experiment on NCI-H226 was > 100 µM (inactive) in each case.
For the molecule `COCC(C)(C)/N=C/N1Cc2cc3ccccc3nc2C1`, the GI50 with DLD-1, in the experiment on SK-MEL-5, with KM12, with CAKI-1, in the experiment on SR and in the experiment with HT-29 was > 100 µM (inactive) throughout. The GI50 in the experiment on Malme-3M, in the experiment with MOLT-4, with HOP-92, in the experiment with SF-268, in the experiment on ACHN and with SNB-19 was > 100 µM (inactive) each time. Further, the GI50 with UO-31 is > 100 µM (inactive); in the experiment on HOP-62 it was 93.8 µM (inactive); with A549, > 100 µM (inactive); in the experiment on NCI-H226, > 100 µM (inactive).
Consider `COC1=C(C(=O)OC(C)(C)C)[C@]2(C)C(C(=O)OC(C)(C)C)C(OC)=C(C(=O)OC(C)(C)C)[C@]2(C)C1C(=O)OC(C)(C)C` (some centres not stated), for which the GI50 is 83.9 µM (inactive) with DLD-1; 35.1 µM (inactive) in the experiment on SK-MEL-5; 79.1 µM (inactive) in the experiment with KM12; 71.3 µM (inactive) in the experiment on CAKI-1; 33.6 µM (inactive) with SR; 63.2 µM (inactive) with HT-29. The GI50 is > 100 µM (inactive) with Malme-3M; 33.9 µM (inactive) with MOLT-4; 32.9 µM (inactive) with HOP-92; > 100 µM (inactive) in the experiment with SF-268; > 100 µM (inactive) with LOX IMVI; 69.3 µM (inactive) with ACHN. The GI50 is > 100 µM (inactive) with SNB-19; 85.3 µM (inactive) in the experiment on UO-31; > 100 µM (inactive) with HOP-62; > 100 µM (inactive) in the experiment on A549; > 100 µM (inactive) in the experiment on NCI-H226.
As to `CN(C)c1ccc(/C=C(/NC(=O)c2ccccc2)c2nc3cc(Cl)ccc3[nH]2)cc1`, the GI50 was 34.4 µM (inactive) in the experiment on DLD-1; 21.6 µM (inactive) with SK-MEL-5; 15.6 µM (inactive) in the experiment on KM12; 61.7 µM (inactive) with CAKI-1; 30.3 µM (inactive) in the experiment with SR; 28.6 µM (inactive) in the experiment on HT-29. The GI50 in the experiment with Malme-3M was 23.1 µM (inactive); with MOLT-4 it was 20.9 µM (inactive); in the experiment on HOP-92, > 100 µM (inactive); in the experiment with SF-268, > 100 µM (inactive); in the experiment on LOX IMVI, 18.3 µM (inactive); in the experiment on ACHN, 48.9 µM (inactive). The GI50 in the experiment on SNB-19 is 45.1 µM (inactive); with UO-31, 28.8 µM (inactive); in the experiment with HOP-62, > 100 µM (inactive); with A549 it was 63.2 µM (inactive); in the experiment on NCI-H226, 30.8 µM (inactive).
As for `O=C1C=CN(C2OC(CO)C(O)C2O)C(=O)C1` (configuration not stated), the GI50 with DLD-1 is 24.6 µM (inactive); in the experiment on MDA-MB-435, 161 µM (inactive); with CAKI-1, 22.3 µM (inactive); with SR, 5.42 µM (inactive); in the experiment with HT-29 it was 32.3 µM (inactive); with DU-145, 9.38 µM (inactive). The GI50 with MOLT-4 is 8.34 µM (inactive); in the experiment with LOX IMVI, 12 µM (inactive); in the experiment on ACHN it was 39.2 µM (inactive); with UO-31, 29.7 µM (inactive); in the experiment on HOP-62, 36.3 µM (inactive); in the experiment on A549, 17.8 µM (inactive). The GI50 with NCI-H226 is 423 µM (inactive); in the experiment with BT-549, > 2500 µM (inactive).
Consider `COC(=O)[C@@]12OC[C@]34C([C@@H](O)C1O)[C@@]1(C)CC(=O)C(O)=C(C)C1C[C@H]3OC(=O)[C@H](OC(=O)/C=C(/c1ccccc1)C(F)(F)F)[C@H]42` (some centres not stated), for which the GI50 in the experiment on DLD-1 was 5.41 µM (inactive); in the experiment with SK-MEL-5, 3.28 µM (inactive); with KM12, 5.74 µM (inactive); with CAKI-1, 7.59 µM (inactive); in the experiment on SR, 0.655 µM (active); in the experiment on HT-29 it was 2.18 µM (inactive). Also, the GI50 was 1.16 µM (inactive) in the experiment with Malme-3M; 0.998 µM (active) in the experiment with MOLT-4; 2.15 µM (inactive) in the experiment on HOP-92; 8.81 µM (inactive) with SF-268; 4.21 µM (inactive) with ACHN; 3.62 µM (inactive) in the experiment on SNB-19. For the same molecule, the GI50 with UO-31 was 6.82 µM (inactive); in the experiment on HOP-62, 5.96 µM (inactive); in the experiment with A549, 4.33 µM (inactive); in the experiment on NCI-H226, 2.02 µM (inactive).
For `C=C[C@]1(C)CC(O)C2C(=C)C(=O)OC2[C@H]1C(=C)C=O` (some centres not stated), the GI50 is 2.08 µM (inactive) with DLD-1; 2.33 µM (inactive) in the experiment with SK-MEL-5; 2.17 µM (inactive) with KM12; 4.35 µM (inactive) in the experiment on CAKI-1; 1.91 µM (inactive) in the experiment on SR; 2.33 µM (inactive) in the experiment with HT-29. For the same molecule, the GI50 with DU-145 is 12.1 µM (inactive); in the experiment on Malme-3M it was 1.86 µM (inactive); in the experiment on MOLT-4, 2 µM (inactive); in the experiment on HOP-92 it was 2.61 µM (inactive); in the experiment on SF-268, 3.95 µM (inactive); in the experiment with LOX IMVI, 1.01 µM (active). In addition, the GI50 with ACHN is 2.36 µM (inactive); with SNB-19, 18.2 µM (inactive); with UO-31, 6.37 µM (inactive); with HOP-62, 15.5 µM (inactive); in the experiment with A549, 18.4 µM (inactive); with NCI-H226, 6.59 µM (inactive). Besides, in the experiment on BT-549, the GI50 was 3.27 µM (inactive).
Consider `CCC1(O)C(=O)OCc2c1cc1n(c2=O)Cc2cc3ccc(CO)cc3nc2-1` (configuration not stated), for which the GI50 in the experiment on DLD-1 was 51.3 µM (inactive); in the experiment on SK-MEL-5 it was 3.08 µM (inactive); in the experiment on KM12 it was 9.35 µM (inactive); in the experiment with CAKI-1 it was 2.97 µM (inactive); in the experiment with SR it was 0.0646 µM (active); with HT-29, 9.35 µM (inactive). Further, the GI50 with Malme-3M is 4.53 µM (inactive); in the experiment on MOLT-4, 0.322 µM (active); in the experiment on HOP-92, 16.3 µM (inactive); in the experiment with SF-268, 0.995 µM (active); in the experiment on LOX IMVI it was 1.83 µM (inactive); in the experiment on ACHN it was 2.86 µM (inactive). The GI50 in the experiment on SNB-19 was 1.93 µM (inactive); with UO-31, 3.81 µM (inactive); with HOP-62, 0.566 µM (active); in the experiment with A549, 6.04 µM (inactive); in the experiment on NCI-H226, 1.59 µM (inactive).
Turning to `CC(=O)OC(C)(C)/C=C/C(=O)[C@](C)(O)[C@H]1[C@H](O)C[C@@]2(C)[C@@H]3CC=C4[C@@H](C=C(O)C(=O)C4(C)C)[C@]3(C)C(=O)C[C@]12C` [CUCURBITACIN E], the GI50 was 0.0302 µM (active) in the experiment on DLD-1; 0.0406 µM (active) in the experiment on SK-MEL-5; 0.504 µM (active) in the experiment with KM12; 0.604 µM (active) with MDA-MB-435; 0.0216 µM (active) in the experiment on CAKI-1; 0.0202 µM (active) with HT-29. The GI50 in the experiment on DU-145 is 0.0262 µM (active); in the experiment with Malme-3M, 0.0366 µM (active); in the experiment on MOLT-4, 0.246 µM (active); in the experiment with HOP-92, 0.0302 µM (active); in the experiment with SF-268 it was 0.0275 µM (active); with LOX IMVI, 0.0101 µM (active). In addition, the GI50 in the experiment with ACHN was 0.0179 µM (active); in the experiment on SNB-19, 0.057 µM (active); in the experiment on UO-31, 0.0235 µM (active); in the experiment on HOP-62, 0.0408 µM (active); in the experiment on A549, 0.0296 µM (active); in the experiment with NCI-H226, 0.0327 µM (active). In the experiment with BT-549, the GI50 is 0.027 µM (active).
